Measured values published in EP0167553B1, “NEW THERAPEUTICAL APPLICATION OF AN INDANE DIONE DERIVATIVE AND PHARMACEUTICAL COMPOSITIONS INTENDED TO SAID UTILIZATION” (priority 1983, dated 1985).

Columns and labels:
[1] = system: Rats: Wistar femelles; experiment: Atherogenic diet (modified Aubert technique): macroscopic examination of the aorta; assay type: in vivo, Rat Wistar; details: 100 mg/kg
From the text: (§1) La technique utilisée est celle, légèrement modifiée, de AUBERT D., FERAUD J.C., LACAZE B., PEPINO., PANAK E. et PODESTA M. "Athérogénèse expérimentale chez le Rat Wistar". ATHEROSCLEROSIS 2Q (1974) 263 - 280.
(§2) • - Rats: Wistar femelles, E.O.P.S. en provenance de l'élevage EVIC-CEBA. • - Poids corporel: 160 180 g au départ de l'étude • - Alimentation: UAR A03, enrichi en cholestérol (0,5 %) et en Acide chloique (0,5 %). • - Eau de boisson: eau de ville. • - 15 animaux par lot et par cage MAKROLON SAFI® de 59 x 38,5 cm sur litière de copeaux de bois blanc dépoussiérés. • - Cages placées dans un module animalerie climatisé (20°C * 1°C), à l'humidité constante (50 % ± 10 %). Durée d'éclairement: 12 heures par jour (7 h à 19 h). • - Administration des produits: Après 15 jours de régime athéromateux, on leur administre par voie orale pendant 4 jours 250 000 Ul/kg de vitamine D2 (Stérogyl 15 H) en solution dans l'huile d'olive. On administre ensuite les produits à étudier pendant 4 semaines dès la fin de l'administration de l'agent lésionnel.
En fin d'étude, tous les animaux sont sacrifiés par ponction subtotale du sang à l'aorte abdominale après anesthésie au pentobarbital sodique. On prélève le coeur, le foie et l'aorte sur laquelle on effectue la cotation du pouvoir athérogène. Pour ce faire, les aortes sont coupées longitudinalement puis étalées pour permettre une vue d'ensemble du revêtement endothélial depuis les valvules aortiques jusqu'à la bifurcation du tronc coeliaque (segment inférieur de l'aorte thoracique).
L'aorte est séparée en 2 zones: • - Zone 1: Valvules aortiques - premières artères intercostales • - Zone 2: premières artères intercostales - bifurcation du tronc coeliaque.
L'intensité des dépôts athéromateux est évaluée selon les critères suivants: • - Stade 0: Absence de dépôts • - Stade 1: Dépôts discrets ([…]) peu nombreux • - Stade 2: Dépôts discrets nombreux • - Stade 3: Dépôts importants (> 1 mm) nombreux • - Stade 4: Dépôts très importants ou très nombreux mais laissant quelques zones non infiltrées. • - Stade 5: Dépôts sur tout l'endothélium.
Deux paramètres sont à prendre en considération: • 1. Le nombre d'animaux présentant des lésions macroscopiques, dont le pourcentage d'animaux atteints. • 2. L'intensité des lésions observées cotées selon les indications fournies précédemment.

[2] = system: Rats: Wistar femelles; experiment: Atherogenic diet (modified Aubert technique): histopathological examination; assay type: in vivo, Rat Wistar; details: 100 mg/kg; three parameters scored relative to Clofibrate
From the text: as §1, §2
Les aortes, les foies et les coeurs sont fixés au Bouitaqueux et inclus à la paraffine après passage par les alcools à concentration croissante et par le toluène.
Les foies sont colorés par la technique à l'hématéine-éosine. Les aortes sont colorées par: • - la technique à l'orcéine - vert lumière afin de mettre en évidence les altérations structurales des lames élastiques. • - la technique à l'acide périodique plus réactif de Schiff pour déceler les dépôts de mucopolysaccharides, • - la technique à l'hématéine plus éosine afin de mettre en évidence les dépôts de calcium.
L'intensité des altérations observées et le degré d'athéromatose sont indiquées par l'un des signes:
• - Pas d'athéromatose 0 • = Très léger degré d'athéromatose 0,5 • + Léger degré d'athéromatose 1 • ++ Moyen degré d'athéromatose 2 • +++Important degré d'athéromatose 3
Les zones athéromateuses sont dénombrées sur une longueur identique pour chacune des aortes examinées. […]

[3] = system: Rats: Wistar femelles; experiment: Atherogenic diet (modified Aubert technique): biochemical examinations and atherogenic risk; assay type: in vivo, Rat Wistar; design: score général Biochimie / Risque athérogène Score Total: scale not given here; details: 100 mg/kg
From the text: as §1, §2
(§3) L'étude porte sur 5 Lots de 15 rats (tableau N° IV)
En fin d'étude, on pratique sur tous les animaux survivants les examens suivants: • - Cholestérol total, • - Cholestérol estérifié, • - Cholestérol HDL • - Cholestérol LDL (évaluation), • - Lipides totaux, • - Triglycérides.

[4] = system: Rats: Wistar femelles; experiment: Atherogenic diet (modified Aubert technique): mortality, body weight, tolerance, overall score; assay type: in vivo, Rat Wistar; details: 100 mg/kg
Procedure: as §2, §3
• - Le comportement et l'[…] pondérale des animaux sont étudiés par l'observation quotidienne et les pesées hebdomadaires. L'étude de l'évolution pondérale ne montre pas de différence significative entre les différents lots. C'est un indice de bonne tolérance du traitement. • - La moralité est notée dans chaque lot; elle peut atteindre 30 % des animaux ce qui nécessite des lots de 15 animaux. L'administration chronique de 100 mg/kg de Clofibrate correspond à la dose maximale tolérée par le Rat sain selon nos expériences personnelles.
Les scores obtenus par les différents produits étudiés sont les suivants (Tableau V)

[5] = system: Rat Wistar; experiment: Hyperlipidaemia induced by Triton WR 1339 injection; assay type: in vivo; design: Triglycérides, score par rapport au Procétofène 250 mg/kg: scale not given here
From the text: L'hyperlipidémie par injection de Triton WR 1339 (marque de fabrique), réalisée chez le Rat Wistar, est antagonisée ou diminuée par l'administration d'agents hypolipémiants.
• - Rats Wistar mâles. • - Poids corporel: 150 -180 grammes. • - Animaux E.O.P.S. (Exempts d'Organisme Pathogène Spécifique). • - Alimentation UAR A04 • - Eau de boisson à volonté • - 6 animaux par lot de traitement et par cage MAKROLON SAFI (marque de fabrique) 60 X 40 cm, sur litière de copeaux de bois dépoussiérés • - Cages placées dans un module animalerie climatisé (19 à 21°C) à degré hygrométrique constant (40 à 60 p.100), dans lequel l'air est renouvelé 10 fois par heure, 12 heures d'éclairement par jour.
• . - 18 h: mise à jeun. • . Temps 0 - administration du Triton WR 1339® (400 mg/kg IP.). • . + 10 mn: administration du produit étudié. • - + 6 h: 1er prélèvement sanguin au sinus rétro-orbitaire. • . + 24 h: 2ème prélèvement sanguin au sinus rétro-orbitaire.
L'essai comporte 8 lots dont un lot témoin (animaux sains) et un lot témoin triton (Tableau I).

[6] = 4 weeks, score relative to Clofibrate (Base 1)
[7] = 250 mg/kg, 6 heures after Triton
[8] = 250 mg/kg, 24 heures after Triton
[9] = 500 mg/kg, 6 heures after Triton
[10] = 500 mg/kg, 24 heures after Triton

CC(C)OC(=O)C(C)(C)Oc1ccc(C(=O)c2ccc(Cl)cc2)cc1 [Fenclofibrate]
Animaux Atteints Score Clofibrate [1]: 0.92
Intensité des lésions Score Clofibrate [1]: 1.25
Observations Macroscopiques Score Total [1]: 2.17
Animaux Atteints % ([1]; animals with macroscopic lesions): 83.33%
Intensité des lésions Cotation ([1]; scale Stade 0 to Stade 5): 1.83
Histologie score [2]: 2.13
Cholesterol LDL Cholesterol HDL Score/Clofibrate [3]: 0.16
Cholesterol T/ Cholesterol HDL Score/Clofibrate [3]: 0.07
Risque athérogène Score Total [3]: 0.23
Cholesterol E Score [3, 6]: 0.40
Cholesterol HDL Score [3, 6]: 0.04
Cholesterol LDL Score [3, 6]: 0.16
Cholesterol T Score [3, 6]: 0.02
Lipides totaux Score [3, 6]: 0.29
Cholesterol LDL Cholesterol HDL Score ([3]; atherogenic risk ratio): 21.44
Cholesterol T/ Cholesterol HDL Score ([3]; atherogenic risk ratio): 25.32
score général Biochimie ([3]; sum of the individual biochemical scores): 1.98
taux de mortalité ([4]; lots of 15 rats on atherogenic diet): 3/15
Score Total ([4]; sum of Biochimie, Risque athérogène, Macroscopie, Histologie): 6.51

CC(C)OC(=O)C(C)(C)Oc1ccc(C(=O)c2ccc(Cl)cc2)cc1 [Procétofène, reference compound]
Chol. HDL/ LDL, score par rapport au Procétofène 250 mg/kg [5, 7]: 1.00
Chol. Total, score par rapport au Procétofène 250 mg/kg [5, 7]: 1.00
Lipides Totaux, score par rapport au Procétofène 250 mg/kg [5, 7]: 1.00
Score Total par rapport au Procétofène 250 mg/kg [5, 7]: 4.00
Triglycérides, score par rapport au Procétofène 250 mg/kg [5, 7]: 1.00
Chol. HDL/ LDL, score par rapport au Procétofène 250 mg/kg [5, 8]: 1.00
Chol. Total, score par rapport au Procétofène 250 mg/kg [5, 8]: 1.00
Lipides Total, score par rapport au Procétofène 250 mg/kg [5, 8]: 1.00
Score Total par rapport au Procétofène 250 mg/kg [5, 8]: 4.00
Triglycérides, score par rapport au Procétofène 250 mg/kg [5, 8]: 1.00
Chol. HDL/ LDL, score par rapport au Procétofène 250 mg/kg [5, 9]: 1.53
Chol. Total, score par rapport au Procétofène 250 mg/kg [5, 9]: 1.65
Lipides Totaux, score par rapport au Procétofène 250 mg/kg [5, 9]: 1.65
Score Total par rapport au Procétofène 250 mg/kg [5, 9]: 5.12
Chol. HDL/ LDL, score par rapport au Procétofène 250 mg/kg [5, 10]: 0.30
Lipides Total, score par rapport au Procétofène 250 mg/kg [5, 10]: 0.85
Score Total par rapport au Procétofène 250 mg/kg [5, 10]: 3.33
